Experiments:
blackgrass [1] = assay: Test C postemergence; type: in vivo, Alopecurus myosuroides; conditions: Postemergence, 1000 g ai/ha
Text: (§1) Seeds of plant species selected from barnyardgrass (Echinochloa crusgalli), blackgrass (Alopecurus myosuroides), corn (Zea mays), foxtail, giant (giant foxtail, Setaria faberi), green foxtail (Setaria viridis), goosegrass (Eleusine indica), kochia (Bassia scoparia), oat, wild (wild oat, Avena fatua), pigweed, palmer (palmer amaranth, palmer pigweed, Amaranthus palmeri), Pigweed, Redroot (redroot pigweed, Amaranthus retroflexus), ragweed (common ragweed, Ambrosia artemisiifolia), ryegrass, Italian ([…] ryegrass, Lolium multiflorum), soybean (Glycine max), and wheat (Triticum aestivum) were planted into a blend of loam soil and sand and treated preemergence with a directed soil spray using test chemicals formulated in a non-phytotoxic solvent mixture which included a surfactant. At the same time, plants selected from these crops and weed species and also galium (catchweed bedstraw, Galium aparine) and horseweed (Erigeron canadensis) were planted in pots containing the same blend of loam soil and sand and treated with postemergence applications of test chemicals formulated in the same manner. Plants ranged in height from 2 to 10 cm and were in the one- to two-leaf stage for the postemergence treatment. Treated plants and untreated controls were maintained in a greenhouse for 10 days, after which time all treated plants were compared to untreated controls and visually evaluated for injury. Plant response ratings, summarized in Table C, are based on a 0 to 100 scale where 0 is no effect and 100 is complete control. A dash (-) response means no test result.

kochia [2] = assay: Test C preemergence; type: in vivo, Bassia scoparia; conditions: Preemergence, 1000 g ai/ha; visual rating after 10 days, 0 to 100 scale (0 no effect, 100 complete control)
Text: as §1

galium = assay: Test C postemergence; type: in vivo, Galium aparine; conditions: Postemergence, 1000 g ai/ha
Text: as §1

ragweed [3] = assay: Test C preemergence; type: in vivo, Ambrosia artemisiifolia; conditions: Preemergence, 1000 g ai/ha; visual rating after 10 days, 0 to 100 scale (0 no effect, 100 complete control)
Text: as §1

ryegrass, Italian [4] = assay: Test C preemergence; type: in vivo, Lolium multiflorum; conditions: Preemergence, 1000 g ai/ha; visual rating after 10 days, 0 to 100 scale (0 no effect, 100 complete control)
Text: as §1

green foxtail [5] = assay: Test C preemergence; type: in vivo, Setaria viridis; conditions: Preemergence, 1000 g ai/ha; visual rating after 10 days, 0 to 100 scale (0 no effect, 100 complete control)
Text: as §1

kochia [6] = assay: Test C postemergence; type: in vivo, Bassia scoparia; conditions: Postemergence, 1000 g ai/ha
Text: as §1

barnyardgrass [7] = assay: Test C preemergence; type: in vivo, Echinochloa crusgalli; conditions: Preemergence, 1000 g ai/ha; visual rating after 10 days, 0 to 100 scale (0 no effect, 100 complete control)
Text: as §1

green foxtail [8] = assay: Test C postemergence; type: in vivo, Setaria viridis; conditions: Postemergence, 1000 g ai/ha
Text: as §1

pigweed, palmer [9] = assay: Test C preemergence; type: in vivo, Amaranthus palmeri; conditions: Preemergence, 1000 g ai/ha; visual rating after 10 days, 0 to 100 scale (0 no effect, 100 complete control)
Text: as §1

blackgrass [10] = assay: Test C preemergence; type: in vivo, Alopecurus myosuroides; conditions: Preemergence, 1000 g ai/ha; visual rating after 10 days, 0 to 100 scale (0 no effect, 100 complete control)
Text: as §1

ragweed [11] = assay: Test C postemergence; type: in vivo, Ambrosia artemisiifolia; conditions: Postemergence, 1000 g ai/ha
Text: as §1

barnyardgrass [12] = assay: Test C postemergence; type: in vivo, Echinochloa crusgalli; conditions: Postemergence, 1000 g ai/ha
Text: as §1

horseweed = assay: Test C postemergence; type: in vivo, Erigeron canadensis; conditions: Postemergence, 1000 g ai/ha
Text: as §1

pigweed, palmer [13] = assay: Test C postemergence; type: in vivo, Amaranthus palmeri; conditions: Postemergence, 1000 g ai/ha
Text: as §1

ryegrass, Italian [14] = assay: Test C postemergence; type: in vivo, Lolium multiflorum; conditions: Postemergence, 1000 g ai/ha
Text: as §1

[15] = 0 to 100 scale, 0 no effect, 100 complete control
[16] = 10 days, visual 0 to 100 scale (0 no effect, 100 complete control)

Row | SMILES | Plant response rating, Blackgrass (blackgrass [1]; [15]) | Plant response rating, Kochia (kochia [2]) | Plant response rating, Galium (galium; [15]) | Plant response rating, Ragweed (ragweed [3]) | Plant response rating, Ryegrass, Italian (ryegrass, Italian [4]) | Plant response rating, Foxtail, Green (green foxtail [5]) | Plant response rating, Kochia (kochia [6]; [15]) | Plant response rating, Barnyardgrass (barnyardgrass [7]) | Plant response rating, Foxtail, Green (green foxtail [8]; [15]) | Plant response rating, Pigweed, Palmer (pigweed, palmer [9]) | Plant response rating, Blackgrass (blackgrass [10]) | Plant response rating, Ragweed (ragweed [11]; [15]) | Plant response rating, Barnyardgrass (barnyardgrass [12]; [15]) | Plant response rating, Horseweed (horseweed; [15]) | Plant response rating, Pigweed, Palmer (pigweed, palmer [13]; [15]) | Plant response rating, Ryegrass, Italian (ryegrass, Italian [14]; [15]) | Plant response rating, Blackgrass (blackgrass [1]; [16]) | Plant response rating, Galium (galium; [16]) | Plant response rating, Kochia (kochia [6]; [16]) | Plant response rating, Foxtail, Green (green foxtail [8]; [16]) | other results
1 | Cc1ncc(-c2cccc(C(=O)N3C[C@H](C)Oc4c(C)cccc43)c2)cn1 [Compound 161] | 50 | 30 | 50 | 80 | 80 | 70 | 30 | 50 | 10 | 0 | 0 | 50 | 10 | 10 | 0 | 20 | – | – | – | – | –
2 | CCOC(=O)c1cncn1-c1cccc(C(=O)N2C[C@H](C)Oc3c(C)cccc32)c1 [Compound 298] | – | 50 | – | 0 | 0 | 30 | – | 0 | – | 40 | 0 | – | – | – | – | – | 0 | 20 | 0 | 0 | Plant response rating, Ragweed (ragweed [11]; [16]): 40; Plant response rating, Barnyardgrass (barnyardgrass [12]; [16]): 0; Plant response rating, Horseweed (horseweed; [16]): 0; Plant response rating, Pigweed, Palmer (pigweed, palmer [13]; [16]): 0; Plant response rating, Ryegrass, Italian (ryegrass, Italian [14]; [16]): 0
3 | Cc1cnc(-c2cccc(C(=O)N3C[C@H](C)Oc4c(C)cccc43)c2)cn1 [Compound 162] | 0 | 0 | 50 | 0 | 70 | 90 | 70 | 60 | 10 | 30 | 30 | 20 | 10 | 0 | 20 | 40 | – | – | – | – | –
4 | COc1ccc(-c2cccc(C(=O)N3C[C@H](C)Oc4c(Cl)cccc43)c2)cn1 [Compound 385] | – | 0 | – | 0 | 50 | 90 | – | 30 | – | 50 | 0 | – | – | – | – | – | 30 | 60 | 70 | 20 | Plant response rating, Ragweed (ragweed [11]; [16]): 50; Plant response rating, Barnyardgrass (barnyardgrass [12]; [16]): 20; Plant response rating, Horseweed (horseweed; [16]): 0; Plant response rating, Pigweed, Palmer (pigweed, palmer [13]; [16]): 70; Plant response rating, Ryegrass, Italian (ryegrass, Italian [14]; [16]): 10
5 | Cc1cccc2c1O[C@@H](C)CN2C(=O)c1cccc(-n2cncc2Br)c1 [Compound 297] | – | 0 | – | 0 | 0 | 0 | – | 0 | – | 0 | 0 | – | – | – | – | – | 0 | 0 | 30 | 0 | Plant response rating, Ragweed (ragweed [11]; [16]): 0; Plant response rating, Barnyardgrass (barnyardgrass [12]; [16]): 0; Plant response rating, Horseweed (horseweed; [16]): 20; Plant response rating, Pigweed, Palmer (pigweed, palmer [13]; [16]): 0; Plant response rating, Ryegrass, Italian (ryegrass, Italian [14]; [16]): 0
6 | Cc1ccc(-c2cccc(C(=O)N3C[C@H](C)Oc4c(C)cccc43)c2)cn1 [Compound 159] | 0 | 0 | 50 | 0 | 20 | 20 | 40 | 0 | 30 | 20 | 0 | 60 | 10 | 0 | 20 | 40 | – | – | – | – | –

Source: patent US20260262643A1, “HERBICIDAL BENZOXAZINES” (FMC CORPORATION, priority 2022, published 2026)
